These are literature values, as cited in patent US12551486B2, “Rivaroxaban formulation” (Shanghai Auson Pharmaceuticals Co., Ltd., priority 2021, dated 2026).

For the compound `O=C(NC[C@H]1CN(c2ccc(N3CCOCC3=O)cc2)C(=O)O1)c1ccc(Cl)s1` [Rivaroxaban, 5-chloro-N-[[(5S)-2-oxo-3-[4-(3-oxomorpholin-4-yl)phenyl]-1,3-oxazolidin-5-yl]methyl]thiophene-2-carboxamide], the Solubility in water entry is listed as “insoluble in water”.
